Among the data in patent US7214689B2, “Isoquinoline compounds” (Les Laboratoires Servier, priority 2003, dated 2007) are Ki, duration of immobilisation and duration of immobility values, retold here.

The target in one assay is T1, MT2 receptor (Homo sapiens, UniProt P49286).
T1 sequence (P49286 1-362): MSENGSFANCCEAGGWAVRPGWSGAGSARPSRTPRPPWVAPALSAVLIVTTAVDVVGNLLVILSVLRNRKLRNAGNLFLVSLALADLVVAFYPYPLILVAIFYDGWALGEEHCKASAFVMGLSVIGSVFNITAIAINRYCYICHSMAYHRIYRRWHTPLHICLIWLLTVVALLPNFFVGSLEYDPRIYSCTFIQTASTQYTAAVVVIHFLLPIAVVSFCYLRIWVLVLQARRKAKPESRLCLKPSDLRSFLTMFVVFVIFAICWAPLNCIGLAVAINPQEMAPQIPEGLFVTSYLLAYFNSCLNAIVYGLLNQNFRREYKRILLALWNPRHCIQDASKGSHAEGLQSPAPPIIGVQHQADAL
Nature of the assay: Binding to melatonin receptor MT2 (2-[125I]-iodomelatonin). To be noted: 2-[125I]-iodomelatonin radioligand, triplicate. Here is the method:
(§1) Study of Binding to Melatonin Receptors MT1 and MT2
(§2) The MT1 or MT2 receptor binding experiments are carried out using 2-[^125I]-iodomelatonin as reference radioligand. The radioactivity retained is determined using a liquid scintillation counter.
(§3) Competitive binding experiments are then carried out in triplicate using the various test compounds. A range of different concentrations is tested for each compound. The results enable the binding affinities (Ki) of the compounds tested to be determined.

The next assay has as its target MT1 receptor (Homo sapiens, UniProt P48039). In words: Binding to melatonin receptor MT1 (2-[125I]-iodomelatonin). To be noted: 2-[125I]-iodomelatonin radioligand, triplicate. Here is the method:
as §1, §2, §3

A further assay can be described thus: Forced swimming test. The settings on record: 40 minutes before the test. The assay is classed as in vivo. The protocol: The compounds of the invention are tested in a behavioural model, the forced swimming test.
The apparatus is a Plexiglas cylinder filled with water. The animals are tested individually for a session of 6 minutes. At the beginning of each test, the animal is placed in the centre of the cylinder. The period of immobility is recorded. Each animal is judged to be immobile when it ceases to struggle and remains immobile on the surface of the water only making movements that allow it to keep its head out of the water.
In particular, the compound of Example 9, administered at 2.5 mg/kg per os, causes the duration of immobility to be reduced from 102 seconds (control) to 57 seconds. The compound of Example 3, administered at 25 mg/kg per os, causes the duration of immobilisation to be reduced from 129 seconds (control) to 60 seconds.

Where a name gives a salt, the structure may show the parent alone.

Chain of MT1 receptor (P48039 whole entry): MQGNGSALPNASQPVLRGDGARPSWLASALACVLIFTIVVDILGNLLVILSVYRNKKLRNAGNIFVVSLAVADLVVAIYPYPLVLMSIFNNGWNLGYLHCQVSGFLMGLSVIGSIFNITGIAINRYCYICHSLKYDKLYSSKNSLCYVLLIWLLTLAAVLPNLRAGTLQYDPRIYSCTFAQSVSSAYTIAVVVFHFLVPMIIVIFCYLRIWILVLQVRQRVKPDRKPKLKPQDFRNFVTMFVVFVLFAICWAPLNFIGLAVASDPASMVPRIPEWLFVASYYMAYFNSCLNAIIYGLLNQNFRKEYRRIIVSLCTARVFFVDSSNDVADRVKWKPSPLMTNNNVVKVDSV

Take `CNC(=O)CCCc1cncc2ccc(OC)cc12` [Example 3, 4-(6-methoxy-4-isoquinolinyl)-N-methylbutanamide]: the Ki (commonly a measure of affinity in units of concentration, obtained from inhibition or displacement) on MT2 receptor was determined as 2.6 nM; on MT1 receptor it was 3.8 nM. In “Forced swimming test” (25 mg/kg per os, control 129 seconds), the duration of immobilisation came to 60 s.
As for `COc1ccc2cncc(CCNC(C)=O)c2c1.Cl` [Example 9, N-[2-(6-methoxy-4-isoquinolinyl)ethyl]acetamide hydrochloride], the Ki on MT2 receptor is 2.16 nM; at MT1 receptor, 9.12 nM. Moreover, the duration of immobility in the assay “Forced swimming test” (2.5 mg/kg per os, control 102 seconds) worked out at 57 s.
In the case of `CCC(=O)NCCc1cncc2ccc(OC)cc12` [Example 10, N-[2-(6methoxy-4-isoquinolinyl)ethyl]propanamide hydrochloride], the Ki on MT2 receptor turned out to be 1.14 nM; at MT1 receptor, 4.26 nM.
